# From EP0328090A2 (priority 1988, dated 1989)
# Starred links: 1 amine or outer side, 2 acyl side, 3 side chain; linkers in the order of their positions; H or OH if unused. Non-standard residues stand in square brackets, D forms with d. Residues, ends and D or L forms follow the SMILES beside them. X1 = CCNC[C@@H](C(=O)[*:2])N(C)[*:1]; Sar = CNCC(=O)O
# System: serum LH concentration
# Experiment: In vivo LH release in castrated rats (serum LH by RIA)
# Conditions: i.v., dose producing half-maximal time integrated LH release
# Method: (§1) The biological activities of the compounds of the invention are determined by the following assays: • (a) Receptor Binding. A radioligand receptor binding assay is performed in a similar way to that described in the literature (J. Marion et al., Mol. Pharmacol. 19 399 (1981)). […] The radioligand (50pM), receptors, and compounds to be tested are coincubated for 2 hours at 4°C. Bound ligand is separated from free ligand via centrifugation and aspiration. […] This assay has been adopted from the literature (H.A. Jinnah and P.M. Conn, Endrocrinology 118 2599 (1986)). Rat pituitaries are removed from immature female rats, minced, and dissociated with collagenase/hyaluronidase. They are allowed to attach to 48-well microtiter plates for 48-72 hours, then are exposed to test compounds for 3 hours at 37°C. The medium is assayed for released LH by RIA (radioimmunoassay). […] The compound to be tested is administered to castrated rats intraveneously and the serum LH concentration at various time points is measured by RIA. The time inteorated LH response is calculated and the dose producing half-maximal LH release (ED₅₀) is reported. • (d) Stability against enzymatic degradation. The intestinal stability of the compounds of the invention was determined using in vitro rat jejunum in a reperfusion system. The fractional mucosal loss was an indicator of the relative rate if degradation of the compounds thirty minutes after introduction of the luminal bath.
row,SMILES,ED₅₀ [µg/kg]
1,"CCNC(=O)CC[C@H](NC(=O)NCC)C(=O)N[C@@H](Cc1c[nH]cn1)C(=O)N[C@@H](Cc1c[nH]c2ccccc12)C(=O)N(C)[C@@H](CO)C(=O)N[C@@H](Cc1ccc(O)cc1)C(=O)N[C@H](Cc1c[nH]c2ccccc12)C(=O)N[C@@H](CC(C)C)C(=O)N[C@@H](CCCNC(=N)N)C(=O)N1CCC[C@H]1C(=O)NCC [Ex. 12, (2)-N-(Ethylaminocarbonyl)-(5)-N-ethylamido-Glu-His-Trp-N-Me-Ser-Tyr-D-Trp-Leu-Arg-Pro-NHEt]",9.90
2,"CCNC[C@@H](C(=O)N[C@@H](Cc1ccc(O)cc1)C(=O)N[C@H](Cc1c[nH]c2ccccc12)C(=O)N[C@@H](CC(C)C)C(=O)N[C@@H](CCCNC(=N)N)C(=O)N1CCC[C@H]1C(=O)NCC)N(C)C(=O)[C@H](Cc1c[nH]c2ccccc12)NC(=O)[C@H](Cc1c[nH]cn1)NC(=O)CN(C)C(C)=O [Ex. 7, N-Ac-Sar-His-Trp-(3)-N-Et-(2)-N-Me-Dap-Tyr-D-Trp-Leu-Arg-Pro-NHEt] (Ac-[Sar]HW[X1]Y[dW]LRP-NHEt)",9.64
3,"CC(C)C[C@H](NC(=O)CNC(=O)[C@H](Cc1ccc(O)cc1)NC(=O)[C@H](CO)NC(=O)[C@H](Cc1c[nH]c2ccccc12)NC(=O)[C@H](Cc1c[nH]cn1)NC(=O)[C@@H]1CCC(=O)N1)C(=O)N[C@@H](CCCNC(=N)N)C(=O)N1CCC[C@H]1C(=O)NCC(N)=O [LHRH, reference compound]",100

# Target: T1, LHRH receptors (Rattus norvegicus, UniProt P30969)
# T1 sequence (P30969 1-327): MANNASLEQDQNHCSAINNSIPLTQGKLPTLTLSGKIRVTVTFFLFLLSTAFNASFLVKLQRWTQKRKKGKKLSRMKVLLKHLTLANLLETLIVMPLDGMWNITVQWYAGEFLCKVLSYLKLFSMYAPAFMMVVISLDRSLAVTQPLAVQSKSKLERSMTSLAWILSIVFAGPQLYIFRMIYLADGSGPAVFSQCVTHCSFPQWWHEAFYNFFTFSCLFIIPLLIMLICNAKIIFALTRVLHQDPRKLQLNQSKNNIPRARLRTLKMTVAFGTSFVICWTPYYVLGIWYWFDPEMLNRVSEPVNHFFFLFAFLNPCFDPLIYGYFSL
# Experiment: Radioligand receptor binding assay
# Conditions: rat pituitary membranes; radioiodinated [D-Leu⁶-des Gly¹⁰]-LHRH ethyl amide 50pM; 2 hours at 4°C; read-out: Receptor Binding pkI (converted)
# Method: as §1
row,SMILES,Ki [nM]
1,"CC(C)C[C@H](NC(=O)[C@@H](Cc1ccc2ccccc2c1)NC(=O)[C@H](Cc1ccc(O)cc1)NC(=O)[C@H](CO)N(C)C(=O)[C@H](Cc1c[nH]c2ccccc12)NC(=O)[C@H](Cc1c[nH]cn1)NC(=O)[C@@H]1CCC(=O)N1)C(=O)N[C@@H](CCCN=C(N)N)C(=O)N1CCC[C@H]1C(=O)NCC(N)=O [Ex. 3, (pyro)Glu-His-Trp-N-Me-Ser-Tyr-D-(2)-Nal-Leu-Arg-Pro-Gly-NH₂]",0.0398
2,"CCNC(=O)[C@@H]1CCCN1C(=O)[C@H](CCCNC(=N)N)NC(=O)[C@H](CC(C)C)N1CC[C@H](NC(=O)[C@H](Cc2ccc(O)cc2)NC(=O)[C@H](CO)N(C)C(=O)[C@H](Cc2c[nH]c3ccccc23)NC(=O)[C@H](Cc2c[nH]cn2)NC(=O)[C@@H]2CCC(=O)N2)C1=O [Ex. 13, (pyro)-Glu-His-Trp-N-Me-Ser-Tyr-6,7-[2-(S-3-amino-2-oxo-pyrrolidin-1-yl)-S-2-Isopropylmethylacetyl]-Arg-Pro-NHEt]",0.038
3,"CCNC(=O)[C@@H]1CCCN1C(=O)[C@H](CCCN=C(N)N)NC(=O)[C@H](CC(C)C)NC(=O)[C@@H](Cc1c[nH]c2ccccc12)NC(=O)[C@H](Cc1ccc(O)cc1)N(C)C(=O)[C@H](CO)NC(=O)[C@H](Cc1c[nH]c2ccccc12)NC(=O)[C@H](Cc1c[nH]cn1)NC(=O)[C@@H]1CCC(=O)N1 [Ex. 20, (pyro)Glu-His-Trp-Ser-N-Me-Tyr-D-Trp-Leu-Arg-ProNHEt]",0.0158
4,"CCNC(=O)[C@@H]1CCCN1C(=O)[C@H](CCCN=C(N)N)NC(=O)[C@H](CC(C)C)NC(=O)[C@@H](CC(C)C)N(C)C(=O)[C@H](Cc1ccc(O)cc1)NC(=O)[C@H](CO)NC(=O)[C@H](Cc1c[nH]c2ccccc12)NC(=O)[C@H](Cc1cnc[nH]1)NC(=O)[C@@H]1CCC(=O)N1 [Ex. 22, (pyro)Glu-His-Trp-Ser-Tyr-N-Me-D-Leu-Leu-Arg-ProNHEt]",0.692
